# Source: patent publication US20220160712A1, “METHODS OF TREATING RHEUMATOID ARTHRITIS AND FOR PREDICTING THE RESPONSE TO METHOTREXATE” (CHAN ZUCKERBERG BIOHUB, INC., priority 2020, published 2022)
# System: complex human gut microbial community
# Assay: Ex vivo incubation of RA patient stool samples with MTX
# Type: cell-based
# Experimental: All work was carried out in an anaerobic chamber. For each patient, stool was aliquoted into a pre-equilibrated cryovial, diluted in reduced PBS at 10 ml per 1 gram of stool, and vortexed to homogenize the sample. The sample was spun at ˜20 g for 1 minute on a mini-centrifuge to facilitate settling of sediment, and the sediment-free supernatant was then aliquoted into a new pre-equilibrated cryovial for evaluation of ex vivo growth. Growth was evaluated by inoculating liquid BHI with 1:50 dilution of this fecal slurry, with OD600 readings performed every 15 minutes for 48 hours with a 2-minute shake prior to each reading. Samples were treated with MTX 100 μg/ml or an equal volume of DMSO at time zero. Each patient's fecal slurry and treatment was evaluated in quadruplicate. Samples from four individuals (Donors 2, 4, 5, and 6) underwent 16S sequencing and analysis at 0 and 24 hours after of treatment with either DMSO or MTX treatments (4 replicates per treatment group) as described in the section titled “16S-seq of humanized mouse gut microbiota.”
# Reads that were not already demultiplexed were demultiplexed using QIIME (Caporaso et al., 2010) v1.9.1 (split_libraries_fastq.py). For all reads except NYU RA patient samples, QIIME2 (Bolyen et al., 2019)(v 2020.2) was used to trim reads, denoise the data, and create a feature table using the following commands: qiime cutadapt trim-paired, qiime dada2 denoise-paired, qiime feature-table filter-samples. Within QIIME2, taxonomy was assigned using the DADA2 et al., (2016), Nat Methods 13, 581-583) implementation of the RDP Naïve Bayesian classifier (Wang, Q., et al., (2007), Appl Environ Microbiol 73, 5261-5267) using the DADA2-formatted SILVA v128 training set; taxonomic assignments to the species level were chosen by exact match of the ASV to the reference database, and where multiple matches were present, all are reported. For figures and in the text, genus and species assignments are reported when available, and when neither was available, the family taxonomic assignment was included; a unique ASV identifier is also reported. This ASV identifier can be used to look up the full taxonomic assignment from kingdom to species and the associated sequence variant in Table S2B. A phylogenetic tree was constructed in QIIME2 using the command: phylogeny align-to-tree-mafft-fasttree. The QIIME2R package was used to import QIIME2 artefacts into R (https://github.com/jbisanz/qiime2R). For RA patient samples from NYU, reads were demultiplexed using QIIME (Caporaso et al., 2010) v1.9.1 (split_libraries_fastq.py) before denoising and processing with DADA2 (Callahan et al., 2016a) v1.1.5 under MRO v3.2.5. Taxonomy was assigned using the DADA2 implementation of the RDP classifier (Wang et al., 2007) using the DADA2-formatted SILVA v128 training set (benjjneb.github.io/dada2/assign.html). Low abundance taxa were filtered out […] as well as ASVs that could not be assigned taxonomy past the kingdom level. Diversity metrics were generated using Vegan (v2.5-6) and Phyloseq (v1.30.0) (McMurdie, P.J., and Holmes, S. (2013), PLoS One 8, e61217), with principal coordinate analysis (PCoA) or principal components analysis (PCA) carried out with Ape (v5.3) or Vegan, respectively. Analyses were carried out on either: (1) centered log2-ratio (clr) normalized taxonomic abundances calculated as Aclr=[log2(A1/ga), log2(A2/ga), . . . log2(An/ga),], where A is a vector of non-zero read counts and ga is the geometric mean of all values of A, or (2) relative abundance calculated as proportion of reads. ANOSIM and PERMANOVA were used to detect changes in community composition using counts from rarefied data and Bray-Curtis distances. DESeq2 (v1.26.0) (Love, M. I., et al., (2014), Genome Biol 15, 550) was used to determine differentially abundant taxa on raw count data. Some ASVs were reported to have log2 fold changes that were 20 or higher. […]
# [1] = MTX 100 μg/ml, 24 hours, 4 ex vivo communities, padj<0.01
compound,measurement,setting,value
"CN(Cc1cnc2nc(N)nc(N)c2n1)c1ccc(C(=O)N[C@@H](CCC(=O)O)C(=O)O)cc1 [MTX, methotrexate]",number of genera with significant shifts in abundance,MTX 100 μg/ml,17
same,Actinobacteria abundance,[1],increased
same,Bacteroidetes abundance,[1],decreased
same,lag phase,"MTX 100 μg/ml, 48 hours",significant delay
same,carrying capacity,"MTX 100 μg/ml, 48 hours, p=1.9×10-6, paired Student's t-test",significant decrease
same,richness (16S-seq of endpoint samples),"MTX 100 μg/ml, 4 patient samples",significant decrease
same,number of ASVs with significant shifts in abundance,"MTX 100 μg/ml, padj<0.01, DESeq",20
same,growth of complex microbial communities,"stool of 30 MTX-naive patients, MTX 100 μg/ml vs vehicle, 48 hours",significantly impaired
